In patent US10961202B2, “Bis-benzimidazole compounds and methods of using the same” (THE SCRIPPS RESEARCH INSTITUTE, priority 2017, dated 2021):

tested on: r(CUG)12-MBNL1 complex; experiment: Inhibition of the r(CUG)12-MBNL1 complex measured by TR-FRET; assay type: biochemical; conditions: Table L; 80 nM RNA, 60 nM MBNL1-His6

Q: Which IC50 does the source give for `N=C(N)c1ccc2nc(-c3ccc(-c4nc5ccc(C(=N)N)cc5[nH]4)cc3)[nH]c2c1` [Compound 26, 2,2′-(1,4-phenylene)bis(1H-benzo[d]imidazole-6-carboximidamide) acetate] here?
A: Its IC50 is 6.6 µM.

Q: How did the IC50 turn out when `CNCCNC(=O)c1ccc2nc(-c3ccc(-c4nc5ccc(C(=O)NCCN(C)C)cc5[nH]4)cc3)[nH]c2c1` [Compound 27, N-(2-(dimethylamino)ethyl)-2-(4-(6-((2-(methylamino)ethyl)carbamoyl)-1H-benzo[d]imidazol-2-yl)phenyl)-1H-benzo[d]imidazole-6-carboxamide] was run?
A: The IC50 was 12.3 µM.

Q: With `CNCCNC(=O)c1ccc2nc(-c3ccc(-c4nc5ccc(C(=O)NCCNC)cc5[nH]4)cc3)[nH]c2c1` [Compound 28, 2,2′-(1,4-phenylene)bis(N-(2-(methylamino)ethyl)-1H-benzo[d]imidazole-6-carboxamide)] as the compound, how does the IC50 read?
A: The IC50 was 12.3 µM.

Q: Which IC50 does the source give for `CN(C)CCNC(=O)c1ccc2nc(-c3ccc(-c4nc5ccc(C(=O)NCCN)cc5[nH]4)cc3)[nH]c2c1` [Compound 29, N-(2-aminoethyl)-2-(4-(6-((2-(dimethylamino)ethyl)carbamoyl)-1H-benzo[d]imidazol-2-yl)phenyl)-1H-benzo[d]imidazole-6-carboxamide] here?
A: The IC50 was 9.6 µM.

Q: For `NCCNC(=O)c1ccc2nc(-c3ccc(-c4nc5ccc(C(=O)NCCN)cc5[nH]4)cc3)[nH]c2c1` [Compound 30, 2,2′-(1,4-phenylene)bis(N-(2-aminoethyl)-1H-benzo[d]imidazole-6-carboxamide)], which IC50 is on record?
A: Its IC50 is 18.3 µM.

Q: Which IC50 does the source give for `C[N+](C)(C)CCNC(=O)c1ccc2nc(-c3ccc(-c4nc5ccc(C(=O)NCC[N+](C)(C)C)cc5[nH]4)cc3)[nH]c2c1` [Compound 31, 2,2′-((2,2′-(1,4-phenylene)bis(1H-benzo[d]imidazole-6,6′-carbonyl))bis(azanediyl))bis(N,N,N-trimethylethanaminium) chloride] here?
A: Its IC50 is 15.4 µM.

Q: How did the IC50 turn out when `CN(C)CCCNC(=O)c1ccc2nc(-c3ccc(-c4nc5ccc(C(=O)NCCN(C)C)cc5[nH]4)cc3)[nH]c2c1` [Compound 35, N-(2-(dimethylamino)ethyl)-2-(4-(6-((3-(dimethylamino)propyl)carbamoyl)-1H-benzo[d]imidazol-2-yl)phenyl)-1H-benzo[d]imidazole-6-carboxamide] was run?
A: The IC50 was 6.2 µM.

Q: With `CN(C)CCCNC(=O)c1ccc2nc(-c3ccc(-c4nc5ccc(C(=O)NCCCN(C)C)cc5[nH]4)cc3)[nH]c2c1` [Compound 36, 2,2′-(1,4-phenylene)bis(N-(3-(dimethylamino)propyl)-1H-benzo[d]imidazole-6-carboxamide)] as the compound, how does the IC50 read?
A: Its IC50 is 7.7 µM.

Q: With `CN(C)CCNC(=O)c1ccc2nc(-c3ccc(-c4nc5ccc(C(=O)NCCN(C)CCN)cc5[nH]4)cc3)[nH]c2c1` [Compound 37, N-(2-((2-aminoethyl)(methyl)amino)ethyl)-2-(4-(6-((2-(dimethylamino)ethyl)carbamoyl)-1H-benzo[d]imidazol-2-yl)phenyl)-1H-benzo[d]imidazole-6-carboxamide] as the compound, how does the IC50 read?
A: The IC50 was 7.8 µM.

Q: For `COC(=O)[C@H](CCCNC(=N)N)NC(=O)c1ccc2nc(-c3ccc(-c4nc5ccc(C(=O)N[C@@H](CCCNC(=N)N)C(=O)OC)cc5[nH]4)cc3)[nH]c2c1` [Compound 39], which IC50 is on record?
A: The IC50 was 4.4 µM.

Q: How did the IC50 turn out when `O=C(NCCN1CCCC1)c1ccc2nc(-c3ccc(-c4nc5ccc(C(=O)NCCN6CCCC6)cc5[nH]4)cc3)[nH]c2c1` [Compound 40, 2,2′-(1,4-phenylene)bis(N-(2-(pyrrolidin-1-yl)ethyl)-1H-benzo[d]imidazole-6-carboxamide)] was run?
A: The IC50 was 7 µM.

Q: With `O=C(NCCN1CCOCC1)c1ccc2nc(-c3ccc(-c4nc5ccc(C(=O)NCCN6CCOCC6)cc5[nH]4)cc3)[nH]c2c1` [Compound 42, 2,2′-(1,4-phenylene)bis(N-(2-morpholinoethyl)-1H-benzo[d]imidazole-6-carboxamide)] as the compound, how does the IC50 read?
A: Its IC50 is over 200 µM.

Q: `O=C(O)c1ccc2nc(-c3ccc(-c4nc5ccc(C(=O)NCCN6CCCCC6)cc5[nH]4)cc3)[nH]c2c1` [Compound 43, 2-(4-(6-((2-(piperidin-1-yl)ethyl)carbamoyl)-1H-benzo[d]imidazol-2-yl)phenyl)-1H-benzo[d]imidazole-6-carboxylic Acid] was tested. Which IC50 did it give?
A: Its IC50 is over 200 µM.

Q: Which IC50 does the source give for `CN1CCN(CCNC(=O)c2ccc3nc(-c4ccc(-c5nc6ccc(C(=O)NCCN7CCN(C)CC7)cc6[nH]5)cc4)[nH]c3c2)CC1` [Compound 45, 2,2′-(1,4-phenylene)bis(N-(2-(4-methylpiperazin-1-yl)ethyl)-1H-benzo[d]imidazole-6-carboxamide)] here?
A: Its IC50 is 18.2 µM.

Q: How did the IC50 turn out when `CC(C)(C)OC(=O)N1CCN(CCNC(=O)c2ccc3nc(-c4ccc(-c5nc6ccc(C(=O)NCCN7CCN(C(=O)OC(C)(C)C)CC7)cc6[nH]5)cc4)[nH]c3c2)CC1` [Compound 46, di-tert-butyl 4,4′-(((2,2′-(1,4-phenylene)bis(1H-benzo[d]imidazole-6,6′-carbonyl))bis(azanediyl))bis(ethane-2,1-diyl))bis(piperazine-1-carboxylate)] was run?
A: Its IC50 is over 200 µM.

Q: For `O=C(NCCCN1CCCCC1)c1ccc2nc(-c3ccc(-c4nc5ccc(C(=O)NCCCN6CCCCC6)cc5[nH]4)cc3)[nH]c2c1` [Compound 48, 2,2′-(1,4-phenylene)bis(N-(3-(piperidin-1-yl)propyl)-1H-benzo[d]imidazole-6-carboxamide)], which IC50 is on record?
A: The IC50 was 10.3 µM.

Q: `CN(C)CCNC(=O)c1ccc2nc(-c3ccc(-c4nc5ccc(C(=O)NCCNC(=O)OC(C)(C)C)cc5[nH]4)cc3)[nH]c2c1` [Compound 49, tert-butyl (2-(2-(4-(6-((2-(dimethylamino)ethyl)carbamoyl)-1H-benzo[d]imidazol-2-yl)phenyl)-1H-benzo[d]imidazole-6-carboxamido)ethyl)carbamate] was tested. Which IC50 did it give?
A: The IC50 was 22.1 µM.

Q: Which IC50 does the source give for `CC(C)(C)OC(=O)NCCNC(=O)c1ccc2nc(-c3ccc(-c4nc5ccc(C(=O)NCCNC(=O)OC(C)(C)C)cc5[nH]4)cc3)[nH]c2c1` [Compound 50, di-tert-butyl(((2,2′-(1,4-phenylene)bis(1H-benzo[d]imidazole-6,6′-carbonyl))bis(azanediyl))bis(ethane-2,1-diyl))dicarbamate] here?
A: Its IC50 is over 200 µM.

Q: Which IC50 does the source give for `CC(=O)NCCNC(=O)c1ccc2nc(-c3ccc(-c4nc5ccc(C(=O)NCCNC(C)=O)cc5[nH]4)cc3)[nH]c2c1` [Compound 51, 2,2′-(1,4-phenylene)bis(N-(2-acetamidoethyl)-1H-benzo[d]imidazole-6-carboxamide)] here?
A: The IC50 was over 200 µM.

Q: For `CCCNC(=O)c1ccc2nc(-c3ccc(-c4nc5ccc(C(=O)NCCC)cc5[nH]4)cc3)[nH]c2c1` [Compound 52, 2,2′-(1,4-phenylene)bis(N-propyl-1H-benzo[d]imidazole-6-carboxamide)], which IC50 is on record?
A: Its IC50 is over 200 µM.

Q: `COCCNC(=O)c1ccc2nc(-c3ccc(-c4nc5ccc(C(=O)NCCOC)cc5[nH]4)cc3)[nH]c2c1` [Compound 53, 2,2′-(1,4-phenylene)bis(N-(2-methoxyethyl)-1H-benzo[d]imidazole-6-carboxamide)] was tested. Which IC50 did it give?
A: Its IC50 is over 200 µM.

Q: For `CN(C)CCOC(=O)c1ccc2nc(-c3ccc(-c4nc5ccc(C(=O)OCCN(C)C)cc5[nH]4)cc3)[nH]c2c1` [Compound 54, bis(2-(dimethylamino)ethyl) 2,2′-(1,4-phenylene)bis(1H-benzo[d]imidazole-6-carboxylate)], which IC50 is on record?
A: Its IC50 is 3.6 µM.

Q: With `CN(C)CCCOC(=O)c1ccc2nc(-c3ccc(-c4nc5ccc(C(=O)OCCCN(C)C)cc5[nH]4)cc3)[nH]c2c1` [Compound 56] as the compound, how does the IC50 read?
A: Its IC50 is 5 µM.

Q: For `CN(C)CCOc1ccc2nc(-c3ccc(-c4nc5ccc(OCCN(C)C)cc5[nH]4)cc3)[nH]c2c1` [Compound 57, 2,2′-((2,2′-(1,4-phenylene)bis(1H-benzo[d]imidazole-6,2-diyl))bis(oxy))bis(N,N-dimethylethanamine)], which IC50 is on record?
A: The IC50 was 119 µM.
